Measurements published in ChEMBL document CHEMBL6182832, “Design and synthesis of coumarin-based amphoteric antimicrobials with biofilm interference and immunoregulation effects” (RSC Med Chem, 2025).
Converted amounts (≈) assume the structure as drawn. The source made the active and inactive calls. The calls are words filed in the database; no cut-off is given here.

Experiments:
[1] = system: Escherichia coli; test: Antibacterial activity against clinically isolated Escherichia coli ATCC25922 assessed as inhibition of bacterial growth measured after 16 to 24 hrs by broth microdilution method; format: functional; details: time 16-24 hrs, read-out: MIC100
[2] = system: Escherichia coli; test: Antibacterial activity against clinically isolated Escherichia coli DE17 assessed as inhibition of bacterial growth measured after 16 to 24 hrs by broth microdilution method; format: functional; details: time 16-24 hrs, read-out: MIC100
[3] = system: Staphylococcus aureus; test: Antibacterial activity against clinically isolated Staphylococcus aureus ATCC29213 assessed as inhibition of bacterial growth measured after 16 to 24 hrs by broth microdilution method; format: functional; details: time 16-24 hrs, read-out: MIC100
[4] = system: Staphylococcus aureus; test: Antibacterial activity against clinically isolated methicillin-resistant Staphylococcus aureus assessed as inhibition of bacterial growth measured after 16 to 24 hrs by broth microdilution method; format: functional; details: time 16-24 hrs, read-out: MIC100
[5] = system: Bacillus subtilis; test: Antibacterial activity against clinically isolated Bacillus subtilis ATCC6633 assessed as inhibition of bacterial growth measured after 16 to 24 hrs by broth microdilution method; format: functional; details: time 16-24 hrs, read-out: MIC100
[6] = system: Bacillus cereus; test: Antibacterial activity against clinically isolated Bacillus cereus CMCC63303 assessed as inhibition of bacterial growth measured after 16 to 24 hrs by broth microdilution method; format: functional; details: time 16-24 hrs, read-out: MIC100
[7] = system: Listeria monocytogenes; test: Antibacterial activity against clinically isolated Listeria monocytogenes CICC21662 assessed as inhibition of bacterial growth measured after 16 to 24 hrs by broth microdilution method; format: functional; details: time 16-24 hrs, read-out: MIC100
[8] = system: Enterococcus faecalis; test: Antibacterial activity against clinically isolated Enterococcus faecalis ATCC29212 assessed as inhibition of bacterial growth measured after 16 to 24 hrs by broth microdilution method; format: functional; details: time 16-24 hrs, read-out: MIC100
[9] = Hemolytic activity in rabbit erythrocytes assessed as hemolysis at 0.5 to 125 ug/ml; format: toxicity, cell-based, Oryctolagus cuniculus; details: erythrocyte, dose 0.5-125 µg/ml
[10] = system: RAW264.7; test: Anti-inflammatory activity against mouse RAW264.7 cells assessed as inhibition LPS-stimulated NO production 0.5 to 4 ug/ml measured after 24 hrs by NO assay kit; format: functional, cell-based; details: dose 0.5-4 µg/ml
[11] = system: Staphylococcus aureus; test: Anti-biofilm activity against clinically isolated Staphylococcus aureus ATCC29213 assessed inhibition of biofilm formation at 0.5 to 128 ug/ml measured after 12 to 16 hrs incubation by crystal violet staining based analysis; format: functional, organism-based; details: dose 0.5-128 µg/ml, time 12-16 hrs
[12] = system: Escherichia coli; test: Anti-biofilm activity against clinically isolated Escherichia coli DE17 assessed inhibition of biofilm formation at 0.5 to 128 ug/ml measured after 12 to 16 hrs incubation by crystal violet staining based analysis; format: functional, organism-based; details: dose 0.5-128 µg/ml, time 12-16 hrs
[13] = Hemolytic activity in rabbit erythrocytes assessed as hemolysis at >8 ug/ml; format: toxicity, cell-based, Oryctolagus cuniculus; details: erythrocyte, dose > 8 µg/ml
[14] = system: Staphylococcus aureus; test: Anti-biofilm activity against clinically isolated Staphylococcus aureus ATCC29213 assessed inhibition of biofilm formation at 2 ug/ml measured after 12 to 16 hrs incubation by crystal violet staining based analysis; format: functional; details: time 12-16 hrs
[15] = system: Staphylococcus aureus; test: Anti-biofilm activity against clinically isolated Staphylococcus aureus ATCC29213 assessed inhibition of biofilm formation at 4 ug/ml measured after 12 to 16 hrs incubation by crystal violet staining based analysis; format: functional; details: time 12-16 hrs
[16] = system: Escherichia coli; test: Anti-biofilm activity against clinically isolated Escherichia coli DE17 assessed inhibition of biofilm formation at 8 ug/ml measured after 12 to 16 hrs incubation by crystal violet staining based analysis; format: functional; details: time 12-16 hrs
[17] = system: Escherichia coli; test: Anti-biofilm activity against clinically isolated Escherichia coli DE17 assessed inhibition of biofilm formation at 16 ug/ml measured after 12 to 16 hrs incubation by crystal violet staining based analysis; format: functional; details: time 12-16 hrs
[18] = system: Staphylococcus aureus; test: Biofilm eradication activity against Staphylococcus aureus ATCC29213 assessed biofilm scavenging at 4 ug/ml measured after 12 to 16 hrs incubation by crystal violet staining based analysis; format: functional, organism-based; details: dose 4.0 µg/ml, time 12-16 hrs
[19] = system: Escherichia coli; test: Biofilm eradication activity against Escherichia coli DE17 assessed biofilm scavenging at 16 ug/ml measured after 12 to 16 hrs incubation by crystal violet staining based analysis; format: functional, organism-based; details: dose 16.0 µg/ml, time 12-16 hrs

Row | Structure (SMILES) | MIC [1] [µg/mL] | MIC [2] [µg/mL] | MIC [3] [µg/mL] | MIC [4] [µg/mL] | further results
1 | CCCN(CCC)CCCCCCCCCCCCOc1ccc2ccc(=O)oc2c1 | > 256 | > 256 | 8 (≈ 18.6 µM) | 4 (≈ 9.31 µM) | 
2 | CN(C)CCCCCCCCCCCCOc1cc(=O)oc2ccccc12 | > 256 | > 256 | 4 (≈ 10.7 µM) | 4 (≈ 10.7 µM) | 
3 | CN(C)CCCCCCCCCCCCOc1ccc2ccc(=O)oc2c1 | > 256 | > 256 | 16 (≈ 42.8 µM) | 4 (≈ 10.7 µM) | 
4 | CN(C)CCCCOc1cc(=O)oc2ccccc12 | > 256 | > 256 | > 256 | > 256 | 
5 | CCCCN(CCCC)CCCCCCCCCCCCOc1ccc2ccc(=O)oc2c1 | > 256 | > 256 | 1 (≈ 2.18 µM) | 4 (≈ 8.74 µM) | 
6 | CCCCN(CCCC)CCCCCCCCCCCCOc1cc(=O)oc2ccccc12 | > 256 | > 256 | 4 (≈ 8.74 µM) | 4 (≈ 8.74 µM) | MIC [5]: 1 µg/mL (≈ 2.18 µM); MIC [6]: 8 µg/mL (≈ 17.5 µM); MIC [7]: 1 µg/mL (≈ 2.18 µM); MIC [8]: 4 µg/mL (≈ 8.74 µM)
7 | O=c1ccc2ccc(O)cc2o1 [UMBELLIFERONE] | > 256 | > 256 | > 256 | > 256 | Activity [9]: Non-toxic; MIC [5]: > 256 µg/mL; MIC [6]: > 256 µg/mL; MIC [7]: > 256 µg/mL; MIC [8]: > 256 µg/mL; Activity [10]: inactive; Activity [11]: inactive; Activity [12]: inactive
8 | O=c1cc(O)c2ccccc2o1 [4-HYDROXYCOUMARINS] | > 256 | > 256 | 256 (≈ 1580 µM) | > 256 | MIC [5]: > 256 µg/mL; MIC [6]: > 256 µg/mL; MIC [7]: > 256 µg/mL; MIC [8]: > 256 µg/mL
9 | CN(C)CCCCCCCCOc1cc(=O)oc2ccccc12 | > 256 | > 256 | 32 (≈ 101 µM) | 64 (≈ 202 µM) | 
10 | CCCCN(CCCC)CCCCCCCCOc1cc(=O)oc2ccccc12 | > 256 | > 256 | 16 (≈ 39.8 µM) | 32 (≈ 79.7 µM) | 
11 | CCN(CC)CCCCCCCCCCCCOc1cc(=O)oc2ccccc12 | > 256 | > 256 | 2 (≈ 4.98 µM) | 2 (≈ 4.98 µM) | MIC [5]: 1 µg/mL (≈ 2.49 µM); MIC [6]: 4 µg/mL (≈ 9.96 µM); MIC [7]: 1 µg/mL (≈ 2.49 µM); MIC [8]: 4 µg/mL (≈ 9.96 µM); Activity [13]: Toxic; Activity [10]: Active; Activity [11]: Dose-dependent-effect; Activity [12]: Dose-dependent-effect; inhibition at 2 µg/mL [14]: 100%; inhibition at 4 µg/mL [15]: 100%; inhibition at 8 µg/mL [16]: 100%; inhibition at 16 µg/mL [17]: 100%; Activity [18]: Active; Activity [19]: Active
12 | CCCCN(CCCC)CCCCOc1ccc2ccc(=O)oc2c1 | > 256 | > 256 | > 256 | > 256 | 
13 | CCN(CC)CCCCOc1cc(=O)oc2ccccc12 | > 256 | > 256 | > 256 | > 256 | 
14 | CCCN(CCC)CCCCCCCCCCCCOc1cc(=O)oc2ccccc12 | > 256 | > 256 | 4 (≈ 9.31 µM) | 2 (≈ 4.66 µM) | 
15 | CN(C)CCCCOc1ccc2ccc(=O)oc2c1 | > 256 | > 256 | > 256 | > 256 | 
16 | CCCN(CCC)CCCCOc1cc(=O)oc2ccccc12 | > 256 | > 256 | > 256 | > 256 | 
17 | CN[C@H](CC(C)C)C(=O)N[C@H]1C(=O)N[C@@H](CC(N)=O)C(=O)N[C@H]2C(=O)N[C@H]3C(=O)N[C@H](C(=O)N[C@H](C(=O)O)c4cc(O)cc(O)c4-c4cc3ccc4O)[C@H](O)c3ccc(c(Cl)c3)Oc3cc2cc(c3O[C@@H]2O[C@H](CO)[C@@H](O)[C@H](O)[C@H]2O[C@H]2C[C@](C)(N)[C@H](O)[C@H](C)O2)Oc2ccc(cc2Cl)[C@H]1O [VANCOMYCIN] | > 256 | > 256 |  |  | MIC [5]: 0.5 µg/mL (≈ 0.345 µM); MIC [7]: 0.5 µg/mL (≈ 0.345 µM); MIC [8]: 2 µg/mL (≈ 1.38 µM)
18 | CCCCN(CCCC)CCCCOc1cc(=O)oc2ccccc12 | > 256 | > 256 | 256 (≈ 741 µM) | > 256 | 
19 | CCN1CCN(c2cc3c(cc2F)c(=O)c(C(=O)O)cn3C2CC2)CC1 [ENROFLOXACIN] | 0.031 (≈ 0.0863 µM) | 0.031 (≈ 0.0863 µM) | 0.062 (≈ 0.173 µM) | 32 (≈ 89 µM) | 
20 | CCN(CC)CCCCOc1ccc2ccc(=O)oc2c1 | > 256 | > 256 | > 256 | > 256 | 
21 | CCCCN(CCCC)CCCCCCCCOc1ccc2ccc(=O)oc2c1 | > 256 | > 256 | 16 (≈ 39.8 µM) | 32 (≈ 79.7 µM) | 
22 | CCCN(CCC)CCCCOc1ccc2ccc(=O)oc2c1 | > 256 | > 256 | > 256 | > 256 | 
23 | CCN(CC)CCCCCCCCOc1cc(=O)oc2ccccc12 | > 256 | > 256 | 64 (≈ 185 µM) | 4 (≈ 11.6 µM) | 
24 | CCCN(CCC)CCCCCCCCOc1cc(=O)oc2ccccc12 | > 256 | > 256 | 16 (≈ 42.8 µM) | 32 (≈ 85.7 µM) | 
25 | CN(C)CCCCCCCCOc1ccc2ccc(=O)oc2c1 | > 256 | > 256 | > 128 | 64 (≈ 202 µM) | 
26 | CCCN(CCC)CCCCCCCCOc1ccc2ccc(=O)oc2c1 | > 256 | > 256 | 32 (≈ 85.7 µM) | 32 (≈ 85.7 µM) | 
27 | CCN(CC)CCCCCCCCOc1ccc2ccc(=O)oc2c1 | > 256 | > 256 | 64 (≈ 185 µM) | 64 (≈ 185 µM) | 
